Data from patent US20060014726A1, “Derivatives of cyclic1, 3- propanediol phosphate and their action in differentiation therapy” (priority 2002, published 2006).
Read-outs that look alike come from different tables or passages of the source.

Assays:
ER-α in T47D cells = experiment: Western blot analysis of ER-α level in T47D cells; type: cell-based, human; conditions: 15 μM
Procedure: Turning to FIG. 1 there are shown Western blot analyses showing the effect of 1,3cPP on the expression level of ER-α. In the ER-α assay, MCF-7 cells were incubated with 1-100 μM 1,3cPP for up to 14 days. The analysis indicates a relative increase in the level of wild type ER-α receptor (MW 70,000) with either an increase in 1,3cPP concentration or time of incubation. On days 6 and 14, a nearly 2-fold and 3-fold increase were observed, respectively (FIGS. 1A, C, D, F). […] This band could be related to one of deleted exons D3-4 (MW 49,000), D4 (MW 54,000), or D7 (MW 51,000) ER-α variants.
Breast Cancer Cells. The human breast cancer MCF-7 cell line were obtained from Prof. […] The absence of Mycoplasma contamination was monitored by a Mycotrim TC test (Irvine Scientific, Santa Ana, Calif.) carried out once every 3 months.
For ER-α protein analysis, MCF-7 and T47D cells were cultured in 60×15 mm petri dishes. […] The protein concentration in each sample (1.5-4 mg/ml) was determined using the Coomassie Protein Assay (Pierce, Rockford, Ill.) according to the manufacturer's instructions. […] Bound antibodies were detected by horseradish peroxidase-conjugated goat anti-rabbit IgG, (Transduction Laboratories, Lexington, Ky. using the ECL detection method. Band densities were quantified by densitometry (Biorad model GS-690 Imaging densitometer) using Molecular Analyst software.

K562 cells = system: K562 cells
Procedure: It is known from the literature that sodium butyrate derives K562 cells into the erythroid differentiation program (Sutherland et al. 1986). Base on such an observation, the ability of 1,3-cPP alone or in combination with sodium butyrate may trigger the erythroid differentiation program manifested by hemoglobin production.
K562 cells were incubated for 5 days in the presence or absence of 10 or 50 μM 1,3cPP and 1 mM butyric acid as a differentiating agent. Quantitative measurements of hemoglobin production was determined by staining of lysed cells with benzidine-peroxide reagent. The benzidine-peroxide reagent was prepared by dissolving 3,3′,5,5′-tetramethyl benzidine in 90% acetic acid and mixing with an equal volume of freshly prepared 1% hydrogen peroxide. Cell lysate, obtained by hypotonic lysing of 5×10^4 cells in 0.1 ml distilled water, was added to 0.1 ml benzidine reagent and incubated at room temperature for 10 minutes in the dark. Absorbance was measured at 515 nm and was taken as a relative index of the hemoglobin level.

Acute toxicity testing = type: in vivo; conditions: CD-1 mice
Procedure: The acute toxicity of 1,3cPP was determined in CD-1 male and female mice, 8-12 weeks of age, via i.v., i.p. and p.o. routes of administration.

Question: For O=P1(O)OCCCO1 [1,3-cPP, 1,3-cyclic propanediol phosphate], which “level of wild type ER-α receptor” value (ER-α in T47D cells; T47D (ER+PR+) clone 11 cells, 6 days) is on record?
Answer: sharp increase

Question: And the “expression of variant ER-α (MW≈40,000)” value (ER-α in T47D cells; T47D clone 8 (ERlo PRlo), 3 days incubation)?
Answer: sharp increase

Question: What about the “baseline production of hemoglobin” value (K562 cells; K562 cells, 10 μM 1,3-cPP together with 1 mM sodium butyrate, 5 days) of the same compound?
Answer: more than doubling

Question: What about the “baseline production of hemoglobin” value (K562 cells; K562 cells, 50 μM 1,3-cPP together with 1 mM sodium butyrate, 5 days) of the same compound?
Answer: more than tripling

Question: What about the hemoglobin production (K562 cells; K562 cells, 1,3-cPP alone, 5 days) of the same compound?
Answer: almost no effect

Question: And the cell viability (K562 cells; K562 cells, all groups)?
Answer: over 85%

Question: And the “interaction with sodium butyrate on hemoglobin production and proliferation” value (K562 cells; K562 cells, combination with sodium butyrate (FIG. 7))?
Answer: synergizes with sodium butyrate

Question: What about the total cell number (K562 cells; K562 cells, fifth day, most prominently 50 μM 1,3-cPP together with 1 mM sodium butyrate) of the same compound?
Answer: concurrent decrease

Question: And the “acute 24 hr toxicity, pharmacotoxic effects” value (Acute toxicity testing; i.p., doses of 0.25-5.0 g/kg)?
Answer: no pharmacotoxic effects were observed

Question: What about the “toxicity classification following conventional criteria” value (Acute toxicity testing; i.v., i.p. and p.o.) of the same compound?
Answer: practically non-toxic substance

Question: What about the “acute toxicity, changes in body weight and behavior” value (Acute toxicity testing; i.v., up to 1 g/kg) of the same compound?
Answer: no changes in body weight nor in behavior

Question: And the “acute toxicity, changes in body weight and behavior” value (Acute toxicity testing; p.o., up to 10 g/kg)?
Answer: no changes in body weight nor in behavior
